Reference: PubChem BioAssay (NCI)
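Exposure lasted 48 hours, with cells grown in 96-well plates and compounds tested at five concentrations. TGI is the concentration that stops growth completely.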

Columns and labels:
Assay in all cases: NCI anticancer screen, dose series, 48 h
[1] = test system: 786-0 renal
[2] = test system: A498 renal
[3] = test system: A549 NSCLC
[4] = test system: ACHN renal
[5] = test system: CAKI-1 renal
[6] = test system: CCRF-CEM leukemia
[7] = test system: COLO 205 colon
[8] = test system: DLD-1 colon
[9] = test system: DMS 114 small cell lung
[10] = test system: DMS 273 small cell lung
[11] = test system: EKVX NSCLC
[12] = test system: HCC-2998 colon
[13] = test system: HCT-116 colon
[14] = test system: HCT-15 colon
[15] = test system: HL-60(TB) leukemia
[16] = test system: HOP-18 NSCLC
[17] = test system: HOP-62 NSCLC
[18] = test system: HT29 colon
[19] = test system: IGROV1 ovarian
[20] = test system: K-562 leukemia
[21] = test system: KM12 colon
[22] = test system: KM20L2 colon
[23] = test system: LXFL 529 NSCLC
[24] = test system: M14 melanoma
[25] = test system: M19-MEL melanoma
[26] = test system: MALME-3M melanoma
[27] = test system: MOLT-4 leukemia
[28] = test system: NCI-H226 lung
[29] = test system: NCI-H23 lung
[30] = test system: NCI-H522 lung
[31] = test system: OVCAR-3 ovarian
[32] = test system: OVCAR-4 ovarian
[33] = test system: OVCAR-8 ovarian
[34] = test system: RPMI-8226 leukemia
[35] = test system: RXF 393 renal
[36] = test system: RXF-631 renal
[37] = test system: SF-268 CNS
[38] = test system: SK-MEL-2 melanoma
[39] = test system: SK-MEL-28 melanoma
[40] = test system: SK-MEL-5 melanoma
[41] = test system: SK-OV-3 ovarian
[42] = test system: SN12C renal
[43] = test system: SNB-19 CNS
[44] = test system: SNB-75 CNS
[45] = test system: SNB-78 CNS
[46] = test system: SR leukemia
[47] = test system: SW-620 colon
[48] = test system: TK-10 renal
[49] = test system: U251 CNS
[50] = test system: UACC-257 melanoma
[51] = test system: UACC-62 melanoma
[52] = test system: UO-31 renal
[53] = test system: HOP-92 NSCLC
[54] = test system: LOX IMVI melanoma
[55] = test system: NCI-H460 lung
[56] = test system: OVCAR-5 ovarian
[57] = test system: SF-295 CNS
[58] = test system: SF-539 CNS
[59] = test system: XF 498 CNS

SMILES: Cc1ccc2c(c1-c1ccccc1)C(=O)OC2
- TGI [1]: > 100 µM
- TGI [2]: > 100 µM
- TGI [3]: > 100 µM
- TGI [4]: > 100 µM
- TGI [5]: > 100 µM
- TGI [6]: > 100 µM
- TGI [7]: > 100 µM
- TGI [8]: > 100 µM
- TGI [9]: > 100 µM
- TGI [10]: > 100 µM
- TGI [11]: 43.4 µM
- TGI [12]: > 100 µM
- TGI [13]: > 100 µM
- TGI [14]: > 100 µM
- TGI [15]: > 100 µM
- TGI [16]: > 100 µM
- TGI [17]: > 100 µM
- TGI [18]: > 100 µM
- TGI [19]: > 100 µM
- TGI [20]: > 100 µM
- TGI [21]: > 100 µM
- TGI [22]: 60.7 µM
- TGI [23]: > 100 µM
- TGI [24]: > 100 µM
- TGI [25]: > 100 µM
- TGI [26]: > 100 µM
- TGI [27]: > 100 µM
- TGI [28]: > 100 µM
- TGI [29]: > 100 µM
- TGI [30]: > 100 µM
- TGI [31]: > 100 µM
- TGI [32]: > 100 µM
- TGI [33]: > 100 µM
- TGI [34]: > 100 µM
- TGI [35]: > 100 µM
- TGI [36]: > 100 µM
- TGI [37]: > 100 µM
- TGI [38]: > 100 µM
- TGI [39]: > 100 µM
- TGI [40]: > 100 µM
- TGI [41]: > 100 µM
- TGI [42]: > 100 µM
- TGI [43]: > 100 µM
- TGI [44]: > 100 µM
- TGI [45]: > 100 µM
- TGI [46]: > 100 µM
- TGI [47]: > 100 µM
- TGI [48]: > 100 µM
- TGI [49]: > 100 µM
- TGI [50]: > 100 µM
- TGI [51]: 92.8 µM
- TGI [52]: > 100 µM

SMILES: C[Si](C)(C)CN1C(=O)c2ccccc2C1(O)c1ccccc1 (stereo not given)
- TGI [1]: > 100 µM
- TGI [2]: > 100 µM
- TGI [3]: > 100 µM
- TGI [4]: > 100 µM
- TGI [5]: > 91.6 µM
- TGI [6]: > 100 µM
- TGI [7]: > 100 µM
- TGI [8]: > 100 µM
- TGI [9]: > 100 µM
- TGI [10]: > 100 µM
- TGI [11]: > 100 µM
- TGI [12]: > 100 µM
- TGI [13]: > 100 µM
- TGI [14]: > 100 µM
- TGI [15]: > 100 µM
- TGI [16]: > 100 µM
- TGI [17]: > 100 µM
- TGI [53]: 97.9 µM
- TGI [18]: > 100 µM
- TGI [19]: > 100 µM
- TGI [20]: > 100 µM
- TGI [21]: > 100 µM
- TGI [22]: > 100 µM
- TGI [54]: > 100 µM
- TGI [23]: > 100 µM
- TGI [24]: > 100 µM
- TGI [26]: > 100 µM
- TGI [27]: > 100 µM
- TGI [28]: > 100 µM
- TGI [29]: > 100 µM
- TGI [55]: > 100 µM
- TGI [30]: > 100 µM
- TGI [31]: > 100 µM
- TGI [32]: > 100 µM
- TGI [56]: > 100 µM
- TGI [33]: > 100 µM
- TGI [35]: > 100 µM
- TGI [36]: > 100 µM
- TGI [37]: > 100 µM
- TGI [57]: > 100 µM
- TGI [58]: > 100 µM
- TGI [38]: > 100 µM
- TGI [39]: > 100 µM
- TGI [40]: > 100 µM
- TGI [42]: > 100 µM
- TGI [43]: > 100 µM
- TGI [44]: > 100 µM
- TGI [45]: > 100 µM
- TGI [46]: > 100 µM
- TGI [47]: > 100 µM
- TGI [48]: > 100 µM
- TGI [49]: > 100 µM
- TGI [50]: > 100 µM
- TGI [51]: > 100 µM
- TGI [52]: > 100 µM
- TGI [59]: > 100 µM

SMILES: Nc1ccc(C2=N/C(=C\c3cccc(N)c3)C(=O)O2)cc1
- TGI [1]: > 100 µM
- TGI [3]: > 100 µM
- TGI [4]: > 100 µM
- TGI [5]: > 100 µM
- TGI [6]: > 100 µM
- TGI [7]: > 100 µM
- TGI [8]: > 100 µM
- TGI [9]: > 100 µM
- TGI [11]: > 100 µM
- TGI [12]: > 100 µM
- TGI [14]: > 100 µM
- TGI [15]: > 100 µM
- TGI [53]: > 100 µM
- TGI [18]: > 100 µM
- TGI [19]: > 100 µM
- TGI [20]: > 100 µM
- TGI [21]: > 100 µM
- TGI [22]: > 100 µM
- TGI [23]: > 100 µM
- TGI [24]: > 100 µM
- TGI [25]: > 100 µM
- TGI [26]: > 100 µM
- TGI [27]: > 100 µM
- TGI [29]: > 100 µM
- TGI [30]: > 100 µM
- TGI [31]: > 100 µM
- TGI [32]: > 100 µM
- TGI [56]: > 100 µM
- TGI [33]: > 100 µM
- TGI [35]: > 100 µM
- TGI [36]: > 100 µM
- TGI [37]: > 100 µM
- TGI [57]: > 100 µM
- TGI [58]: > 100 µM
- TGI [38]: > 100 µM
- TGI [39]: > 100 µM
- TGI [40]: > 100 µM
- TGI [41]: > 100 µM
- TGI [42]: > 100 µM
- TGI [43]: > 100 µM
- TGI [45]: > 100 µM
- TGI [46]: > 100 µM
- TGI [47]: > 100 µM
- TGI [48]: > 100 µM
- TGI [49]: > 100 µM
- TGI [51]: > 100 µM
- TGI [52]: > 100 µM
- TGI [59]: > 100 µM

SMILES: CCCCCCCCCCCCCCCCCCC1=C(O)C(=O)C=C(OC)C1=O
- TGI [1]: > 100 µM
- TGI [2]: > 100 µM
- TGI [3]: > 100 µM
- TGI [4]: > 100 µM
- TGI [5]: > 100 µM
- TGI [7]: > 100 µM
- TGI [8]: > 100 µM
- TGI [9]: 61.8 µM
- TGI [10]: > 100 µM
- TGI [11]: > 100 µM
- TGI [12]: > 100 µM
- TGI [13]: > 100 µM
- TGI [14]: 97.5 µM
- TGI [15]: 80.8 µM
- TGI [16]: > 100 µM
- TGI [17]: > 100 µM
- TGI [53]: > 100 µM
- TGI [18]: > 100 µM
- TGI [19]: > 100 µM
- TGI [21]: > 100 µM
- TGI [22]: > 100 µM
- TGI [23]: > 100 µM
- TGI [24]: > 100 µM
- TGI [25]: > 100 µM
- TGI [26]: > 100 µM
- TGI [27]: > 100 µM
- TGI [28]: > 100 µM
- TGI [29]: > 100 µM
- TGI [55]: > 100 µM
- TGI [30]: 82.2 µM
- TGI [31]: > 100 µM
- TGI [32]: > 100 µM
- TGI [56]: > 100 µM
- TGI [33]: > 100 µM
- TGI [35]: > 100 µM
- TGI [37]: > 100 µM
- TGI [57]: > 100 µM
- TGI [58]: > 100 µM
- TGI [38]: 76.5 µM
- TGI [39]: > 100 µM
- TGI [40]: > 100 µM
- TGI [41]: > 100 µM
- TGI [42]: > 100 µM
- TGI [43]: > 100 µM
- TGI [44]: > 100 µM
- TGI [45]: > 100 µM
- TGI [46]: > 100 µM
- TGI [47]: > 100 µM
- TGI [48]: > 100 µM
- TGI [49]: > 100 µM
- TGI [50]: > 100 µM
- TGI [51]: > 100 µM
- TGI [52]: > 100 µM
- TGI [59]: > 100 µM
